Measured values: US11911346B2, “Orally administrated therapeutic for treating mild cognitive impairment (MCI) and improving human cognitive function” (BrainCare LLC, priority 2021, dated 2024)

System: cognitive function of participants with Subjective Cognitive Decline
Experiment: Cognitive Failures Questionnaire (CFQ), 8-week randomized study of one or two BCP capsules daily
Format: in vivo, human
Details: two capsules daily (180 mg BCP); for CFQ score: Do you bump into people? / CFQ score: Do you confuse left and right when giving people directions? / CFQ score: Do you daydream when you ought to be listening to something? / CFQ score: Do you fail to hear people speaking to you when you are doing something? / CFQ score: Do you fail to listen to people's names when you are meeting them for the first time? / CFQ score: Do you fail to notice signposts on the road? / CFQ score: Do you fail to see what you want in a supermarket (although it's there)? / CFQ score: Do you find that you drop things? / CFQ score: Do you find that you forget appointments? / CFQ score: Do you find you accidentally misplace things like placing the fruit in the cupboard and the bowl in the refrigerator? / CFQ score: Do you find you can't quite remember something although it's “on the tip of your tongue”? / CFQ score: Do you find you can't think of anything to say? / CFQ score: Do you find you forget people's names? / CFQ score: Do you find you forget what you came to the store to buy? / CFQ score: Do you find you forget whether you've turned off a light or locked the door? / CFQ score: Do you find you forget which way to turn on a road you know well but rarely use? / CFQ score: Do you find you forget why you went from one place of the house to the other? / CFQ score: Do you find yourself suddenly wondering if you used a word correctly? / CFQ score: Do you forget where you put something like a newspaper or a book? / CFQ score: Do you have trouble making up your mind? / CFQ score: Do you lose track of paying bills? / CFQ score: Do you lose your temper and regret it? / CFQ score: Do you read something and find you haven't been thinking about it and must read it again? / CFQ score: Do you say something and realize afterwards that it might be taken as an insult? / CFQ score: Do you start doing one thing at home and get distracted and do something else (unintentionally)? / Distractibility summed sub-score of CFQ / False triggering summed sub-score of CFQ / Forgetfulness summed sub-score of CFQ / Total CFQ summed sub-score: lower is better
[1] = week 4, listed as beta-caryophyllene
[2] = week 8, listed as beta-caryophyllene

SMILES: C=C1CC/C=C(\C)CC[C@@H]2[C@@H]1CC2(C)C [BCP, beta-caryophyllene]
- CFQ % better vs. baseline: Do you find yourself suddenly wondering if you used a word correctly? (week 4): 29% better
- CFQ % better vs. baseline: Do you forget where you put something like a newspaper or a book? (week 4): 19%
- CFQ % better vs. baseline: Do you have trouble making up your mind? (week 4): 21% better
- CFQ % better vs. baseline: Do you lose track of paying bills? (week 4): 10% better
- CFQ % better vs. baseline: Do you lose your temper and regret it? (week 4): 26% better
- CFQ % better vs. baseline: Do you read something and find you haven't been thinking about it and must read it again? (week 4): 39%
- CFQ % better vs. baseline: Do you start doing one thing at home and get distracted and do something else (unintentionally)? (week 4): 30%
- CFQ change vs. baseline: Do you say something and realize afterwards that it might be taken as an insult? (week 4): No change
- Distractibility summed sub-score of CFQ, % better vs. baseline (week 4): 20%
- False triggering summed sub-score of CFQ, % better vs. baseline (week 4): 33%
- Forgetfulness summed sub-score of CFQ, % better vs. baseline (week 4): 27%
- Total CFQ summed sub-score, % better vs. baseline (week 4): 25%
- CFQ % better vs. baseline: Do you daydream when you ought to be listening to something? [1]: 28% better
- CFQ % better vs. baseline: Do you find you can't quite remember something although it's “on the tip of your tongue”? [1]: 20% better
- CFQ % better vs. baseline: Do you find you forget whether you've turned off a light or locked the door? [1]: 45% better
- CFQ % better vs. baseline: Do you find you forget why you went from one place of the house to the other? [1]: 39% better
- CFQ % better vs. baseline: Do you forget where you put something like a newspaper or a book? [1]: 19% better
- CFQ % better vs. baseline: Do you read something and find you haven't been thinking about it and must read it again? [1]: 39% better
- CFQ % better vs. baseline: Do you start doing one thing at home and get distracted and do something else (unintentionally)? [1]: 30% better
- Distractibility summed sub-score of CFQ, % better vs. baseline [1]: 20% better
- False triggering summed sub-score of CFQ, % better vs. baseline [1]: 33% better
- Forgetfulness summed sub-score of CFQ, % better vs. baseline [1]: 27% better
- Total CFQ summed sub-score, % better vs. baseline [1]: 25% better
- CFQ score: Do you bump into people? (week 4): 0.6 ± 0.8
- CFQ score: Do you confuse left and right when giving people directions? (week 4): 0.7 ± 0.8
- CFQ score: Do you daydream when you ought to be listening to something? (week 4): 1.3 ± 0.9
- CFQ score: Do you fail to hear people speaking to you when you are doing something? (week 4): 1.5 ± 1.1
- CFQ score: Do you fail to listen to people's names when you are meeting them for the first time? (week 4): 1.8 ± 1.2
- CFQ score: Do you fail to notice signposts on the road? (week 4): 0.7 ± 0.7
- CFQ score: Do you fail to see what you want in a supermarket (although it's there)? (week 4): 1.1 ± 1.0
- CFQ score: Do you find that you drop things? (week 4): 1.1 ± 0.7
- CFQ score: Do you find that you forget appointments? (week 4): 0.7 ± 0.8
- CFQ score: Do you find you accidentally misplace things like placing the fruit in the cupboard and the bowl in the refrigerator? (week 4): 0.7 ± 0.9
- CFQ score: Do you find you can't quite remember something although it's “on the tip of your tongue”? (week 4): 2.0 ± 1.0^
- CFQ score: Do you find you can't think of anything to say? (week 4): 0.8 ± 0.8
- CFQ score: Do you find you forget people's names? (week 4): 2.0 ± 0.9
- CFQ score: Do you find you forget what you came to the store to buy? (week 4): 1.0 ± 0.9
- CFQ score: Do you find you forget whether you've turned off a light or locked the door? (week 4): 1.1 ± 0.9
- CFQ score: Do you find you forget which way to turn on a road you know well but rarely use? (week 4): 0.6 ± 0.8
- CFQ score: Do you find you forget why you went from one place of the house to the other? (week 4): 1.4 ± 0.7^
- CFQ score: Do you find yourself suddenly wondering if you used a word correctly? (week 4): 1.0 ± 1.1
- CFQ score: Do you forget where you put something like a newspaper or a book? (week 4): 1.7 ± 0.9^
- CFQ score: Do you have trouble making up your mind? (week 4): 1.5 ± 1.1
- CFQ score: Do you lose track of paying bills? (week 4): 0.9 ± 1.0
- CFQ score: Do you lose your temper and regret it? (week 4): 1.1 ± 0.8
- CFQ score: Do you read something and find you haven't been thinking about it and must read it again? (week 4): 1.5 ± 0.9
- CFQ score: Do you say something and realize afterwards that it might be taken as an insult? (week 4): 1.4 ± 0.9
- CFQ score: Do you start doing one thing at home and get distracted and do something else (unintentionally)? (week 4): 1.9 ± 0.8
- Distractibility summed sub-score of CFQ (week 4): 10 ± 5
- False triggering summed sub-score of CFQ (week 4): 7 ± 4^
- Forgetfulness summed sub-score of CFQ (week 4): 12 ± 5^
- Total CFQ summed sub-score (week 4): 29 ± 14
- CFQ % better vs. baseline: Do you bump into people? (week 8): 29% better
- CFQ % better vs. baseline: Do you confuse left and right when giving people directions? (week 8): 22% better
- CFQ % better vs. baseline: Do you daydream when you ought to be listening to something? (week 8): 33%
- CFQ % better vs. baseline: Do you fail to hear people speaking to you when you are doing something? (week 8): 23% better
- CFQ % better vs. baseline: Do you fail to listen to people's names when you are meeting them for the first time? (week 8): 17% better
- CFQ % better vs. baseline: Do you fail to notice signposts on the road? (week 8): 20% better
- CFQ % better vs. baseline: Do you fail to see what you want in a supermarket (although it's there)? (week 8): 23% better
- CFQ % better vs. baseline: Do you find that you drop things? (week 8): 33% better
- CFQ % better vs. baseline: Do you find that you forget appointments? (week 8): 50% better
- CFQ % better vs. baseline: Do you find you accidentally misplace things like placing the fruit in the cupboard and the bowl in the refrigerator? (week 8): 63%
- CFQ % better vs. baseline: Do you find you can't quite remember something although it's “on the tip of your tongue”? (week 8): 12% better
- CFQ % better vs. baseline: Do you find you can't think of anything to say? (week 8): 27% better
- CFQ % better vs. baseline: Do you find you forget people's names? (week 8): 20% better
- CFQ % better vs. baseline: Do you find you forget what you came to the store to buy? (week 8): 27% better
- CFQ % better vs. baseline: Do you find you forget whether you've turned off a light or locked the door? (week 8): 40%
- CFQ % better vs. baseline: Do you find you forget which way to turn on a road you know well but rarely use? (week 8): 44% better
- CFQ % better vs. baseline: Do you find you forget why you went from one place of the house to the other? (week 8): 39%
- CFQ % better vs. baseline: Do you find yourself suddenly wondering if you used a word correctly? (week 8): 43% better
- CFQ % better vs. baseline: Do you forget where you put something like a newspaper or a book? (week 8): 29%
- CFQ % better vs. baseline: Do you have trouble making up your mind? (week 8): 26% better
- CFQ % better vs. baseline: Do you lose track of paying bills? (week 8): 30% better
- CFQ % better vs. baseline: Do you lose your temper and regret it? (week 8): 33% better
- CFQ % better vs. baseline: Do you read something and find you haven't been thinking about it and must read it again? (week 8): 39%
- CFQ % better vs. baseline: Do you say something and realize afterwards that it might be taken as an insult? (week 8): 14% better
- CFQ % better vs. baseline: Do you start doing one thing at home and get distracted and do something else (unintentionally)? (week 8): 30%
- Distractibility summed sub-score of CFQ, % better vs. baseline (week 8): 29%
- False triggering summed sub-score of CFQ, % better vs. baseline (week 8): 36%
- Forgetfulness summed sub-score of CFQ, % better vs. baseline (week 8): 27%
- Total CFQ summed sub-score, % better vs. baseline (week 8): 30%
- CFQ % better vs. baseline: Do you daydream when you ought to be listening to something? [2]: 33% better
- CFQ % better vs. baseline: Do you find you accidentally misplace things like placing the fruit in the cupboard and the bowl in the refrigerator? [2]: 63% better
- CFQ % better vs. baseline: Do you find you forget whether you've turned off a light or locked the door? [2]: 40% better
- CFQ % better vs. baseline: Do you find you forget why you went from one place of the house to the other? [2]: 39% better
- CFQ % better vs. baseline: Do you forget where you put something like a newspaper or a book? [2]: 29% better
- CFQ % better vs. baseline: Do you read something and find you haven't been thinking about it and must read it again? [2]: 39% better
- CFQ % better vs. baseline: Do you start doing one thing at home and get distracted and do something else (unintentionally)? [2]: 30% better
- Distractibility summed sub-score of CFQ, % better vs. baseline [2]: 29% better
- False triggering summed sub-score of CFQ, % better vs. baseline [2]: 36% better
- Forgetfulness summed sub-score of CFQ, % better vs. baseline [2]: 27% better
- Total CFQ summed sub-score, % better vs. baseline [2]: 30% better
- CFQ score: Do you bump into people? (week 8): 0.5 ± 0.6
- CFQ score: Do you confuse left and right when giving people directions? (week 8): 0.7 ± 0.8
- CFQ score: Do you daydream when you ought to be listening to something? (week 8): 1.2 ± 0.9
- CFQ score: Do you fail to hear people speaking to you when you are doing something? (week 8): 1.3 ± 1.1
- CFQ score: Do you fail to listen to people's names when you are meeting them for the first time? (week 8): 1.9 ± 1.1
- CFQ score: Do you fail to notice signposts on the road? (week 8): 0.8 ± 0.7
- CFQ score: Do you fail to see what you want in a supermarket (although it's there)? (week 8): 1.0 ± 0.8
- CFQ score: Do you find that you drop things? (week 8): 1.0 ± 0.7
- CFQ score: Do you find that you forget appointments? (week 8): 0.5 ± 0.5
- CFQ score: Do you find you accidentally misplace things like placing the fruit in the cupboard and the bowl in the refrigerator? (week 8): 0.3 ± 0.5
- CFQ score: Do you find you can't quite remember something although it's “on the tip of your tongue”? (week 8): 2.2 ± 0.8
- CFQ score: Do you find you can't think of anything to say? (week 8): 0.8 ± 0.7
- CFQ score: Do you find you forget people's names? (week 8): 2.0 ± 1.0
- CFQ score: Do you find you forget what you came to the store to buy? (week 8): 1.1 ± 0.9
- CFQ score: Do you find you forget whether you've turned off a light or locked the door? (week 8): 1.2 ± 0.7
- CFQ score: Do you find you forget which way to turn on a road you know well but rarely use? (week 8): 0.5 ± 0.6
- CFQ score: Do you find you forget why you went from one place of the house to the other? (week 8): 1.4 ± 0.8^
- CFQ score: Do you find yourself suddenly wondering if you used a word correctly? (week 8): 0.8 ± 0.9
- CFQ score: Do you forget where you put something like a newspaper or a book? (week 8): 1.5 ± 0.9^
- CFQ score: Do you have trouble making up your mind? (week 8): 1.4 ± 0.9
- CFQ score: Do you lose track of paying bills? (week 8): 0.7 ± 0.9
- CFQ score: Do you lose your temper and regret it? (week 8): 1.0 ± 0.7
- CFQ score: Do you read something and find you haven't been thinking about it and must read it again? (week 8): 1.4 ± 0.8
- CFQ score: Do you say something and realize afterwards that it might be taken as an insult? (week 8): 1.2 ± 0.7
- CFQ score: Do you start doing one thing at home and get distracted and do something else (unintentionally)? (week 8): 1.9 ± 0.7
- Distractibility summed sub-score of CFQ (week 8): 9 ± 4
- False triggering summed sub-score of CFQ (week 8): 7 ± 4^
- Forgetfulness summed sub-score of CFQ (week 8): 12 ± 5^
- Total CFQ summed sub-score (week 8): 27 ± 11
